Measurements reported in patent publication US11802120B2, “Fused cyclic urea derivatives as CRHR2 antagonist” (RaQualia Pharma Inc., priority 2018, dated 2023).

Target: T1, human CRHR2-alpha (Homo sapiens, UniProt Q13324)
T1 sequence (Q13324 1-411): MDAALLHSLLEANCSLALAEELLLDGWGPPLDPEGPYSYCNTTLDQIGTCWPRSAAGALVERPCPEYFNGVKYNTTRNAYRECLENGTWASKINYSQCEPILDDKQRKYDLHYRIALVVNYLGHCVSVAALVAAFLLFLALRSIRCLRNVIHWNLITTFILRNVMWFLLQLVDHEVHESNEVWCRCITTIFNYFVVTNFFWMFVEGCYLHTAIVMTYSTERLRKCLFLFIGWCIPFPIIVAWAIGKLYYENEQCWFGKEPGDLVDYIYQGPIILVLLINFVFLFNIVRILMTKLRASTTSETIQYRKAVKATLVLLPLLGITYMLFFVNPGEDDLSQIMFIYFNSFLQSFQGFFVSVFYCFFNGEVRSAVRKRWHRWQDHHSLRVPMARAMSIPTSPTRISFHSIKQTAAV
Assay: cAMP functional assay for human CRHR2 (LANCE Ultra cAMP, TR-FRET)
Type: cell-based
Details: CHO-K1 cells expressing human CRHR2-alpha, agonist human urocortin2 at EC80, cAMP; read-out: IC50 against CRHR2
Experimental: cAMP functional assay for human CRHR1 and CRHR2
The ability of the compounds of this invention to inhibit either CRHR2 or CRHR1 is assessed by 3′,5′-cyclic adenosine monophosphate (cAMP) production in cells using the LANCE Ultra cAMP assay kit (ParkinElmer), which are designed based on the homogeneous time-resolved fluorescence resonance energy transfer (TR-FRET) immunoassay.
CHO-K1 (Chinese hamster ovary) cells stably expressing either human CRHR2-alpha (DiscoveRX, Cat. 95-0048C2) or human CRHR1-beta (DiscoveRX, Cat. 95-0047C2) are grown in HAM's F12 media supplemented with 10% fetal bovine serum (FBS), 100 units/mL penicillin, 100 microg/mL hygromycin and 0.5 microg/mL geneticin at 37° C. in 5% CO2 humidified incubator to 80% confluence. After 7 hours starvation treatment in culture media containing 0.1% FBS, the cells are washed with Hanks balanced salt solution (HBSS) and cryopreserved.
For cAMP assay, frozen cells are thawed and washed with HBSS, followed by resuspended in assay buffer (HBSS containing 0.1% bovine serum albumin, 0.5 mM isobutylmethylxanthine and 5 mM Hepes, pH 7.4) at the appropriate concentration for the assay. The cell suspensions are plated on 384-well microplates (Greiner Bio-One) at a density of 4,000 cells per well. After preincubating the cells with various concentrations of the compounds for 30 min at 25° C., an assay buffer containing EC80 concentration of each agonist is added and the cells are incubated for 30 min at 25° C. Human urocortin2 (Peptide Institute) and CRF (Peptide Institute) are used as agonists for CRHR2 and CRHR1, respectively. For the termination of assay, europium-labeled cAMP tracer and ULight (registered trademark) dye labeled cAMP antibodies, both prepared with Lance-Ultra cAMP detection reagent (Perkin Elmer) are added in the plate and incubate for 60 min at 25° C. After incubation, TR-FRET signal is detected by EnVision plate reader (PerkinElmer). The IC50 values for compounds are calculated from dose-response curves by fitting the percent inhibition using XLfit (ID Business Solutions).

C=Cc1ccc(-n2c(=O)n(C[C@H]3CC[C@H](NC(=O)c4cc(Cl)cnc4C)CC3)c3ccccc32)cn1 [Example 70, 5-chloro-2-methyl-N-((1r,4r)-4-((2-oxo-3-(6-vinylpyridin-3-yl)-2,3-dihydro-1H-benzo[d]imidazol-1-yl)methyl)cyclohexyl)nicotinamide]
IC50: < 300 nM

CCc1ccc(-n2c(=O)n(C[C@H]3CC[C@H](NC(=O)c4cc(Cl)cnc4C)CC3)c3ccccc32)cn1 [Example 72, 5-chloro-N-((1r,4r)-4-((3-(6-ethylpyridin-3-yl)-2-oxo-2,3-dihydro-1H-benzo[d]imidazol-1-yl)methyl)cyclohexyl)-2-methylnicotinamide]
IC50: < 300 nM

C=Cc1cc(-n2c(=O)n(C[C@H]3CC[C@H](NC(=O)c4cc(Cl)cnc4C)CC3)c3ccccc32)ccn1 [Example 82, 5-chloro-2-methyl-N-((1r,4r)-4-((2-oxo-3-(2-vinylpyridin-4-yl)-2,3-dihydro-1H-benzo [d]imidazol-1-yl)methyl)cyclohexyl)nicotinamide]
IC50: < 300 nM

Cc1ncc(Cl)cc1C(=O)N[C@H]1CC[C@H](Cn2c(=O)n(-c3ccc(C4=CCOCC4)nc3)c3ccccc32)CC1 [Example 84, 5-chloro-N-((1r,4r)-4-((3-(6-(3,6-dihydro-2H-pyran-4-yl)pyridin-3-yl)-2-oxo-2,3-dihydro-1H-benzo[d]imidazol-1-yl)methyl)cyclohexyl)-2-methylnicotinamide]
IC50: < 300 nM

Cc1ncc(Cl)cc1C(=O)N[C@H]1CC[C@H](Cn2c(=O)n(-c3ccc(C4CC4)nc3)c3ccccc32)CC1 [Example 86, 5-chloro-N-((1r,4r)-4-((3-(6-cyclopropylpyridin-3-yl)-2-oxo-2,3-dihydro-1H-benzo[d]imidazol-1-yl)methyl)cyclohexyl)-2-methylnicotinamide]
IC50: < 300 nM

Cc1ncc(Cl)cc1C(=O)N[C@H]1CC[C@H](Cn2c(=O)n(-c3ccc(-c4ccccc4)nc3)c3ccccc32)CC1 [Example 89, 5-chloro-2-methyl-N-((1r,4r)-4-((2-oxo-3-(6-phenylpyridin-3-yl)-2,3-dihydro-1H-benzo[d]imidazol-1-yl)methyl)cyclohexyl)nicotinamide]
IC50: < 300 nM

Cc1ncc(Cl)cc1C(=O)N[C@H]1CC[C@H](Cn2c(=O)n(-c3ccc(-c4ccccc4CO)nc3)c3ccccc32)CC1 [Example 90, 5-chloro-N-((1r,4r)-4-((3-(6-(2-(hydroxymethyl)phenyl)pyridin-3-yl)-2-oxo-2,3-dihydro-1H-benzo[d]imidazol-1-yl)methyl)cyclohexyl)-2-methylnicotinamide]
IC50: < 300 nM

Cc1ncc(Cl)cc1C(=O)N[C@H]1CC[C@H](Cn2c(=O)n(-c3ccc(N4CCCC(O)C4)nc3)c3ccccc32)CC1 (stereo partly drawn) [Example 95, 5-chloro-N-((1r,4r)-4-((3-(6-(3-hydroxypiperidin-1-yl)pyridin-3-yl)-2-oxo-2,3-dihydro-1H-benzo[d]imidazol-1-yl)methyl)cyclohexyl)-2-methylnicotinamide]
IC50: < 300 nM

Cc1ncc(Cl)cc1C(=O)N[C@H]1CC[C@H](Cn2c(=O)n(-c3ccc(N4CCC(O)CC4)nc3)c3ccccc32)CC1 [Example 96, 5-chloro-N-((1r,4r)-4-((3-(6-(4-hydroxypiperidin-1-yl)pyridin-3-yl)-2-oxo-2,3-dihydro-1H-benzo[d]imidazol-1-yl)methyl)cyclohexyl)-2-methylnicotinamide]
IC50: < 300 nM

Cc1ncc(Cl)cc1C(=O)N[C@H]1CC[C@H](Cn2c(=O)n(-c3ccc(OC(F)F)nc3)c3ccccc32)CC1 [Example 97, 5-chloro-N-((1r,4r)-4-((3-(6-(difluoromethoxy)pyridin-3-yl)-2-oxo-2,3-dihydro-1H-benzo[d]imidazol-1-yl)methyl)cyclohexyl)-2-methylnicotinamide]
IC50: < 300 nM

Cc1ncc(Cl)cc1C(=O)N[C@H]1CC[C@H](Cn2c(=O)n(-c3ccc(NC4CC4)nc3)c3ccccc32)CC1 [Example 101, 5-chloro-N-((1r,4r)-4-((3-(6-(cyclopropylamino)pyridin-3-yl)-2-oxo-2,3-dihydro-1H-benzo[d]imidazol-1-yl)methyl)cyclohexyl)-2-methylnicotinamide]
IC50: < 300 nM

Cc1ncc(Cl)cc1C(=O)N[C@H]1CC[C@H](Cn2c(=O)n(-c3ccc(NCC4CC4)nc3)c3ccccc32)CC1 [Example 105, 5-chloro-N-((1r,4r)-4-((3-(6-((cyclopropylmethyl)amino)pyridin-3-yl)-2-oxo-2,3-dihydro-1H-benzo[d]imidazol-1-yl)methyl)cyclohexyl)-2-methylnicotinamide]
IC50: < 300 nM

Cc1ncc(Cl)cc1C(=O)N[C@H]1CC[C@H](Cn2c(=O)n(-c3ccc(N[C@@H]4CCOC4)nc3)c3ccccc32)CC1 [Example 107, 5-chloro-2-methyl-N-((1R,4R)-4-((2-oxo-3-(6-(((R)-tetrahydro-furan-3-yl)amino)pyridin-3-yl)-2,3-dihydro-1H-benzo[d]imidazol-1-yl)methyl)cyclohexyl) nicotinamide]
IC50: < 300 nM

Cc1ncc(Cl)cc1C(=O)N[C@H]1CC[C@H](Cn2c(=O)n(-c3ccc(NC4CC(F)(F)C4)nc3)c3ccccc32)CC1 [Example 108, 5-chloro-N-((1r,4r)-4-((3-(6-((3,3-difluorocyclobutyl)amino)pyridin-3-yl)-2-oxo-2,3-dihydro-1H-benzo[d]imidazol-1-yl)methyl)cyclohexyl)-2-methylnicotinamide]
IC50: < 300 nM

Cc1ncc(Cl)cc1C(=O)N[C@H]1CC[C@H](Cn2c(=O)n(-c3ccc(NC[C@@H]4CCCO4)nc3)c3ccccc32)CC1 [Example 109, 5-chloro-2-methyl-N-((1S,4r)-4-((2-oxo-3-(6-((((S)-tetrahydro-furan-2-yl)methyl)amino)pyridin-3-yl)-2,3-dihydro-1H-benzo[d]imidazol-1-yl)methyl)cyclohexyl)nicotinamide]
IC50: < 300 nM

Cc1ncc(Cl)cc1C(=O)N[C@H]1CC[C@H](Cn2c(=O)n(-c3ccc(NC[C@H]4CCCO4)nc3)c3ccccc32)CC1 [Example 110, 5-chloro-2-methyl-N-((1R,4r)-4-((2-oxo-3-(6-((((R)-tetra-hydrofuran-2-yl)methyl)amino)pyridin-3-yl)-2,3-dihydro-1H-benzo[d]imidazol-1-yl)methyl)cyclohexyl)nicotinamide]
IC50: < 300 nM

Cc1ncc(Cl)cc1C(=O)N[C@H]1CC[C@H](Cn2c(=O)n(-c3ccc(N4CCCC4=O)nc3)c3ccccc32)CC1 [Example 111, 5-chloro-2-methyl-N-((1r,4r)-4-((2-oxo-3-(6-(2-oxopyrrolidin-1-yl)pyridin-3-yl)-2,3-dihydro-1H-benzo[d]imidazol-1-yl)methyl)cyclohexyl)nicotinamide]
IC50: < 300 nM

Cc1ncc(Cl)cc1C(=O)N[C@H]1CC[C@H](Cn2c(=O)n(-c3ccc(OCC4CC4)nc3)c3ccccc32)CC1 [Example 112, 5-chloro-N-(4-((3-(6-(cyclopropylmethoxy)pyridin-3-yl)-2-oxo-2,3-dihydro-1H-benzo [d]imidazol-1-yl)methyl)cyclohexyl)-2-methylnicotinamide]
IC50: < 300 nM

Cc1ncc(Cl)cc1C(=O)N[C@H]1CC[C@H](Cn2c(=O)n(-c3ccc(OC4CC4)nc3)c3ccccc32)CC1 [Example 113, 5-chloro-N-(4-((3-(6-cyclopropoxypyridin-3-yl)-2-oxo-2,3-dihydro-1H-benzo [d]imidazol-1-yl)methyl)cyclohexyl)-2-methylnico-tinamide]
IC50: < 300 nM

CNc1cnc(-n2c(=O)n(C[C@H]3CC[C@H](NC(=O)c4cc(Cl)cnc4C)CC3)c3ccccc32)cn1 [Example 115, 5-chloro-2-methyl-N-((1r,4r)-4-((3-(5-(methylamino)pyrazin-2-yl)-2-oxo-2,3-dihydro-1H-benzo [d]imidazol-1-yl)methyl)cyclo-hexyl)nicotinamide]
IC50: < 300 nM

Cc1ncc(Cl)cc1C(=O)N[C@H]1CC[C@H](Cn2c(=O)n(-c3cnc(N(C)C)cn3)c3ccccc32)CC1 [Example 116, 5-chloro-N-((1r,4r)-4-((3-(5-(dimethylamino)pyrazin-2-yl)-2-oxo-2,3-dihydro-1H-benzo[d]imidazol-1-yl)methyl)cyclo-hexyl)-2-methylnicotinamide]
IC50: < 300 nM
